Reference: US20220056043A1, “NITROGEN-CONTAINING FUSED CYCLIC COMPOUND, PREPARATION METHOD THEREFOR AND USE THEREOF” (SICHUAN KELUN-BIOTECH BIOPHARMACEUTICAL CO., LTD., priority 2019, published 2022)
Where a name gives a salt, the structure may show the parent alone.

Legend:
hNLRP3 inflammasome = target: T1, hNLRP3 inflammasome (Homo sapiens, UniProt Q96P20); assay: Agonistic effect on the expression of IL-1β in THP-1 cells after PMA-induced differentiation (HTRF); type: cell-based; conditions: IL-1β level, PMA-differentiated THP-1 cells, 6 hours
T1 construct: endogenous in cells; host or cells: THP-1 cells, PMA-differentiated
T1 sequence (Q96P20 whole entry): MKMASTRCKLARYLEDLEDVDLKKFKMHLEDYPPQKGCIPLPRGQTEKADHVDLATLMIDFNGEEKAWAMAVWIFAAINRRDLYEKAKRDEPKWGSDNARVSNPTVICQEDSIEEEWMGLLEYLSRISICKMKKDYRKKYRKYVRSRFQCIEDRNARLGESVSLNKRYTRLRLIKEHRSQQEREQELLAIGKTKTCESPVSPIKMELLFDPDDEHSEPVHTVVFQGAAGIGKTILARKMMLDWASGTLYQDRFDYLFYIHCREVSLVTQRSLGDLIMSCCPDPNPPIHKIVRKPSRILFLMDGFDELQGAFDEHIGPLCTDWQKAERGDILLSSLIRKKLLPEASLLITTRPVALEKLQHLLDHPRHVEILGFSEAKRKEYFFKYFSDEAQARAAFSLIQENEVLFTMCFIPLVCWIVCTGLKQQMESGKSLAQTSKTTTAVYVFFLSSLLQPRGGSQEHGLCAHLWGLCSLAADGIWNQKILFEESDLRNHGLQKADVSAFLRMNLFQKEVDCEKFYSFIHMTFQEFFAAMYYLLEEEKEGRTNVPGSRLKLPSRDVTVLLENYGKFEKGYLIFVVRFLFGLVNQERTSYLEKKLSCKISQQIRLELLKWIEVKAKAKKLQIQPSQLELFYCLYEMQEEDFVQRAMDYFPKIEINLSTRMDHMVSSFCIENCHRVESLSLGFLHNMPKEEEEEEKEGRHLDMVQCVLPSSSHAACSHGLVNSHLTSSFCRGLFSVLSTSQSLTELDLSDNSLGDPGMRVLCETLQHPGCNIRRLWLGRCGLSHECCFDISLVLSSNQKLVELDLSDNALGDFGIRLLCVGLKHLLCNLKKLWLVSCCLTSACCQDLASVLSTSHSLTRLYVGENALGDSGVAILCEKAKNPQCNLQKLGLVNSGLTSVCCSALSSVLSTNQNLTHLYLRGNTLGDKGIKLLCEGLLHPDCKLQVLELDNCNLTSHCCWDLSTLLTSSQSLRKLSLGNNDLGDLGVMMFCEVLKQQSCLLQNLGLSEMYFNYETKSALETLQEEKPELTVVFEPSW
Source text: Experimental Example 1: Agonistic Effect of the Compound of the Invention on the Expression of IL-1β in THP-1 Cells after PMA-Induced Differentiation
In this test, a HTRF (homogeneous time-resolved fluorescence) detection method was used to test the effect of the compound of the invention on the level of downstream cytokine IL-1β of NLRP3 to evaluate the agonistic effect of the compound on hNLRP3 inflammasome or hNLRP3 inflammasome pathway at a cellular level.
Reagent: RPMI 1640 (Hyclone); heat-inactivated FBS (fetal bovine serum) (Gibco); PMA (phorbol myristal acetate) (Beyotime)
Kit: IL-1β assay kit (CISIO)
1) THP-1 cells in a logarithmic growth phase were seeded in a T75 culture flask at a density of 5×10^5 cells/well, and cultured in a cell incubator at 37° C., 5% CO2 for 24 hours, and then 1 μM PMA was used to induce THP-1 suspension cells to become adherent macrophages. The medium was RPMI 1640 containing 10% heat-inactivated FBS and 0.05 mM β-mercaptoethanol.
2) The cells were induced and cultured for 24 hours. Then the adherent cells were trypsinized and centrifuged at 1000 rpm for 5 min. The supernatant was removed, and the cells were resuspended to a density of 2×10^6 cells/mL in RPMI 1640 medium containing 2% heat-inactivated FBS. 50 μL/well of cell resuspension was taken and spread on a 96-well plate such that the number of cells in each well was 1×10^5.
3) An appropriate amount of 10 mM DMSO solution of the compound to be tested was taken and diluted to a concentration of 2× test concentration with RPMI 1640 medium containing 2% heat-inactivated FBS. 50 μL/well of the dilution was added to the cells in the 96-well plate, and mixed well. The plate was placed in a cell incubator at 37° C., 5% CO2 for 6 hours. The supernatant was collected, and the level of IL-1β was measured in accordance with the instructions of the IL-1β detection kit.
4) EC50 was fitted by the GraphPad software log(agonist) vs. response—Variable slope four-parameter method.

[1] = system: CT26 mouse colon cancer subcutaneously transplanted tumor; assay: In vivo efficacy on bilaterally inoculated CT26 mouse colon cancer subcutaneously transplanted tumor; conditions: for tumor volume (mm^3) day 0 / tumor volume (mm^3) day 14: twice a week for two weeks; for tumor volume (mm^3) day 0: day 0 (grouping); for tumor volume (mm^3) day 14 / TGI (%): day 14
Protocol: Experimental Example 7: In Vivo Efficacy of the Compounds of the Invention on Bilaterally Inoculated CT26 Mouse Colon Cancer Subcutaneously Transplanted Tumor
1) CT26 mouse colon cancer cells were cultured in a monolayer in vitro. When the cells were in a logarithmic growth phase, the cells were collected by centrifugation and counted.
2) 0.1 ml of PBS resuspension containing 3×10^5 CT26 cells was inoculated subcutaneously in the bilateral shoulder blades of mice respectively. When the bilateral scapular tumors of the mice grew to a volume of about 100 mm^3, the mice were randomly divided into 4 groups according to the bilateral tumor volumes, 8 mice in each group.
3) Compound 115s was injected into the tumor at the right scapular tumor of mice at 10 μg/time, 50 μg/time, and 250 μg/time, respectively, twice a week for two consecutive weeks. The bilateral tumor volumes and the body weight of the animals were measured.
4) Tumor inhibition rate, TGI (%), was calculated based on the tumor volumes to evaluate the inhibitory effect of Compound 115s on the growth of transplanted tumors in the mice. The calculation formula was: TGI (%)=100%−(TVt−TV0)/(CVt−CV0)×100%. When the tumor was regressing, the calculation formula was: TGI (%)=100%−(TVt−TV0)/TV0×100%, wherein TV0 was the average tumor volume of the tested compound group at the time of grouping; TVt was the average tumor volume of the tested compound group at the time of measurement on the t^th day; CV0 was the average tumor volume of the vehicle group at the time of grouping; and CVt was the average tumor volume of the vehicle group at the time of measurement on the t^th day. For statistical analysis of differences between the two groups, student's t-test was used to calculate the P value.

[2] = administration side, 10 μg/time intratumoral
[3] = administration side, 50 μg/time intratumoral
[4] = administration side, 250 μg/time intratumoral
[5] = non-administration side, 10 μg/time intratumoral (other side)
[6] = non-administration side, 50 μg/time intratumoral (other side)
[7] = non-administration side, 250 μg/time intratumoral (other side)

`COCCNc1cc(N)nc2cc(-c3ccn[nH]3)sc12` [Compound 100s, N^7-(2-methoxyethyl)-2-(1H-pyrazol-5-yl)thieno[3,2-b]pyridine-5,7-diamine hydrochloride] was tested, and the EC50 (hNLRP3 inflammasome) was 0.01 µM.
In the case of `Nc1cc(NCC(F)F)c2sc(-c3ccn[nH]3)cc2n1` [Compound 116s, N^7-(2,2-difluoroethyl)-2-(1H-pyrazol-5-yl)thieno[3,2-b]pyridine-5,7-diamine hydrochloride], the EC50 (hNLRP3 inflammasome) is reported as 0.05 µM.
With `Nc1cc(NCC2CCOCC2)c2sc(-c3ccn[nH]3)cc2n1` [Compound 120s, 2-(1H-pyrazol-5-yl)-N^7-((tetrahydro-2H-pyran-4-yl)methyl)thieno[3,2-b]pyridine-5,7-diamine hydrochloride] the EC50 (hNLRP3 inflammasome) was 0.03 µM.
`CC(C)(CO)CNc1cc(N)nc2cc(-c3ccn[nH]3)sc12.Cl` [Compound 115s, 3-((5-amino-2-(1H-pyrazol-5-yl)thieno[3,2-b]pyridin-7-yl)amino)-2,2-dimethyl-1-propanol hydrochloride] was tested, and the “tumor volume (mm^3) day 0” value [1, 2] was 74.63 ± 6.26 mm^3, the “tumor volume (mm^3) day 14” value [1, 2] was 499.05 ± 211.28 mm^3 and the “TGI (%)” value [1, 2] was 77.46%. The “tumor volume (mm^3) day 0” value [1, 3] was 74.03 ± 4.69 mm^3, the “tumor volume (mm^3) day 14” value [1, 3] was 61.66 ± 41.15 mm^3 and the “TGI (%)” value [1, 3] was 144.99%. The “tumor volume (mm^3) day 0” value [1, 4] was 74.00 ± 4.41 mm^3, the “tumor volume (mm^3) day 14” value [1, 4] was 0.00 ± 0.00 mm^3 and the “TGI (%)” value [1, 4] was 200.00%. The “tumor inhibitory effect on the non-administration side tumors” value ([1]; intratumoral injection at the other side, in words) was “significant dose-dependent tumor inhibitory effect”, the “anti-tumor effect on the subcutaneous tumor at the administration side” value ([1]; intratumoral injection, compared with the vehicle group, in words) was “significant dose-dependent anti-tumor effect” and the “tumor inhibitory effect on bilateral CT26 subcutaneous tumors” value ([1]; intratumoral injection, summary in words) was “significant dose-dependent tumor inhibitory effect”. The “tumor volume (mm^3) day 0” value [1, 5] was 85.21 ± 7.40 mm^3, the “tumor volume (mm^3) day 14” value [1, 5] was 1269.99 ± 140.11 mm^3 and the “TGI (%)” value ([1]; non-administration side, 10 μg/time) was 38.94%. The “tumor volume (mm^3) day 0” value [1, 6] was 85.31 ± 6.01 mm^3, the “tumor volume (mm^3) day 14” value [1, 6] was 869.87 ± 99.95 mm^3 and the “TGI (%)” value ([1]; non-administration side, 50 μg/time) was 59.57%. For the same compound, the “tumor volume (mm^3) day 0” value [1, 7] was 85.17 ± 6.28 mm^3, the “tumor volume (mm^3) day 14” value [1, 7] was 462.85 ± 52.91 mm^3 and the “TGI (%)” value ([1]; non-administration side, 250 μg/time) was 80.54%.
For `CCC(CC)Nc1cc(N)nc2cc(-c3ccn[nH]3)sc12` [Compound 113s, N^7-(pent-3-yl)-2-(1H-pyrazol-5-yl)thieno[3,2-b]pyridine-5,7-diamine hydrochloride], the EC50 (hNLRP3 inflammasome) was 0.01 µM.
`Nc1cc(NC2CCCC2)c2sc(-c3ccn[nH]3)cc2n1` [Compound 110s, N^7-cyclopentyl-2-(1H-pyrazol-5-yl)thieno[3,2-b]pyridine-5,7-diamine hydrochloride] was tested, and the EC50 (hNLRP3 inflammasome) was 0.03 µM.
